Measurements reported in patent US12678440B2, “Compositions and methods for treating misfolded protein ocular disorders” (CASE WESTERN RESERVE UNIVERSITY, priority 2020, dated 2026).

Columns and labels:
[1] = test system: P23H rhodopsin; test: Immunoblot of rhodopsin, MTX plus BafA1 or MG-132, NIH3T3 (RHO^P23H/GFP) cells; assay type: cell-based; details: 10 μM MTX + 100 nM BafA1, 24 h
Method: Cells were seeded in 6-well plates at a density of 5×10^5 cells/well and cultured at 37° C. with 5% CO2 for 17 h. The medium was replaced with a fresh medium containing a corresponding concentration of compounds. After treatment for 24 h, cells collected and lysed in 150 μL PBS containing 0.1% SDS and complete protease inhibitor cocktail with 12 s of sonication on ice. Retina samples were lysed in 300 μL per retina of PBS containing 0.1% SDS and complete protease inhibitor cocktail under 24 s of sonication on ice. Protein concentrations were determined by measurements of OD280 nm using a Nanodrop spectrometer. To immunoblot rhodopsin, one hundred μg of total protein for NIH3T3 (RHO^P23H/GFP) cells, or twenty μg of total protein for NIH3T3 (RHO^WT/GFP) cells was loaded per well onto an SDS-PAGE gel. To detect other proteins, fifty μg of total protein was loaded per well. After separation by electrophoresis in 10% and 16% SDS-PAGE gels, proteins were transferred to a nitrocellulose membrane using a wet membrane electrotransfer cassette followed by blocking with 5% bovine serum albumin in PBS containing 0.05% Tween 20 for 1 h. The membranes were incubated with primary antibodies at 4° C. overnight following with appropriate secondary antibodies for 1 h at room temperature. […]

[2] = Estimated initial vitreous concentration after IVI; details: mouse vitreous volume about 5.3 μL
[3] = test system: chymotrypsin-like proteasome activity; test: Proteasome activity assay (Proteasome-Glo); assay type: cell-based; details: NIH3T3 (RHO^P23H/GFP) and NIH3T3 (RHO^WT/GFP) cells; 0.0195 to 10 μM, 24 h
Method: NIH3T3 (RHO^P23H/GFP), NIH3T3 (RHO^WT/GFP) and NIH3T3 cells were seeded in a white-wall clear-bottom 384-well plate at 2500 cells/well in 20 μL of complete mediu. After 3 h of incubation, five μL/well of complete medium containing MTX was added to cells to treat cells with MTX at final concentrations from 0.0195 to 10 μM for 24 h. The cells treated with a complete medium containing 0.1% DMSO were used as the 100% control, and those treated with 5 μM MG-132 for 8 h were used as the 0% control. For endpoint proteasome activity measurement, each well was added with 25 μL of Proteasome-Glo™ Reagent containing the Suc-LLVY-Glo™ substrate (Promega, G8660, Madison, WI USA). The 384-well plate was shaken for 2 min to mix the solutions followed by a 24-min incubation at room temperature. Luminescence of each well was detected by a SpectraMax 13× microplate reader (Molecular Devices). The chymotrypsin-like proteasome activity was normalized by the 100% and 0% controls, respectively.

[4] = cited from earlier work
[5] = test system: Rho^P23H/+ mice; test: Electroretinogram (ERG) after intravitreal injection; assay type: in vivo, mouse
Method: The C57BL/6J (Rho^+/+) mice and Rho^P23H/P23H mice were purchased from Jackson Laboratory (Stock No 017628) generated by Dr. Krzysztof Palczewski's lab. The Rho^P23H/P23H mice were crossed with wild-type C57BL/6J mice to produce P23H heterozygotes mice. Genotyping for all strains was conducted as guided using forward and reverse primers: 1) GGTAGCACTGTTGGGCATCT (SEQ ID NO: 5); and 2) GACCCCACAGAGACAAGCTC (SEQ ID NO: 6), respectively. The PCR products at 573 and 399 bp indicated the P23H knock-in mutant and WT allele of the RHO gene, respectively. Mice were bred and housed under standard 12-h light/12-h dark conditions in the University of Pittsburgh animal facility. All animal experiments were approved by the University of Pittsburgh Institutional Animal Care and Use Committee (IACUC) following the guide for the Animal Welfare Act and Regulations.
To determine the effect of compounds on retina in vivo, we administered compounds directly into the vitreous space. Briefly, mice were treated with 1% tropicamide eye drops (Akorn, Lake Forest, IL USA) to dilate the pupils and then they were anesthetized with an intraperitoneal injection of ketamine (Henry Schein, Dublin, OH USA) at 80 mg/kg body weight (bw) and xylazine (Bimeda, Le Sueur, MN USA) at 7 mg/kg bw. One drop of 0.5% tetracaine hydrochloride (TCI, Tokyo, Japan) was applied to mouse eyes as topical anesthetics before injection. Eyes were kept lubricated during the injections by a 0.3% hypromellose eye gel (Alcon, Fort Worth, TX USA). A heating pad was used for maintaining body temperature. Mice were positioned to expose the sclera of the eyes. A 30-gauge needle (Medline, Northfield, IL USA) was used to puncture a hole through sclera behind limbus at a 45° angle. A 33-gauge blunt-end needle (Hamilton, Reno, NV USA) was used to be inserted into the hole and a total of 0.5 μL of sterile PBS or MTX in PBS was slowly injected into the posterior chamber and the needle was kept in place for about 30 seconds before a slow removal of the needle. A small amount of Triantibiotic ointment (Medline, Northfield, IL USA) was applied on the injection site to prevent infection. A single IVI with 25 or 100 pmol of MTX was administered to one eye of each Rho^P23H/+ mice at postnatal day (PND) 15, and PBS was injected to the other eye as vehicle control. We also performed four weekly IVIs of MTX or PBS to the second group of Rho^P23H/+ mouse eyes at PND 15, 22, 29 and 36.
ERG was performed using the Celeris system (Diagnosys, Lowell, MA, USA), as described previously. Before each test, mice were kept in the dark overnight. Pupils were dilated with 1% tropicamide (Akorn, Lake Forest, IL, USA). Mice were anesthetized with an intraperitoneal injection of ketamine at 80 mg/kg bw and xylazine at 7 mg/kg bw. Eyes were lubricated by a 0.3% hypromellose eye gel (Alcon, Fort Worth, TX, USA). A heating pad was used to maintain body temperature at 37° C. Scotopic ERG responses of dark-adapted eyes to ten flashes from 0.01 cd·s/m^2 to 30 cd·s/m^2 were recorded and averaged from three sweeps per flash intensity with inter-sweep intervals of 10 to 30 s. After exposed to 10 cd/m^2 illumination for 5 min, the photopic ERG responses were recorded from the light-adapted eyes in respond to flashes from 0.01 cd·s/m^2 to 30 cd·s/m^2 in addition to a 10 cd/m^2 background light. P-values were calculated by a two-way ANOVA to determine the statistical significance between the response amplitudes in the MTX-treated and vehicle (PBS) group. Factor 1, treatment condition; and factor 2, flash intensity.

[6] = single IVI 25 pmol at PND 15, ERG at PND 32, vs PBS or non-treated
[7] = single IVI 100 pmol at PND 15, ERG at PND 32

CN(Cc1cnc2nc(N)nc(N)c2n1)c1ccc(C(=O)N[C@@H](CCC(=O)O)C(=O)O)cc1 [CL-009, N-[4-[[(2,4-diamino-6-pteridinyl)methyl]methylamino]benzoyl]-L-glutamic acid]
MTX induced P23H rhodopsin clearance under BafA1 co-treatment (immunoblot) [1]: abolished
vitreous concentration ([2]; 25 pmol IVI): about 4.7 μM
initial vitreous concentration ([2]; 100 pmol IVI): 18.9 µM
chymotrypsin-like proteasome activity [3]: did not affect
water solubility [4]: water-soluble
multi-flash scotopic and photopic b-waves ([5]; four weekly IVIs from PND 15, ERG at PND 44, vs PBS): significantly increased
photopic b-waves ([5]; four weekly IVIs of 100 pmol, vs PBS, at higher flash intensities): higher
multi-flash scotopic ERG a- and b-waves [5, 6]: significantly higher
photopic ERG responses [5, 6]: higher
multi-flash scotopic ERG a- and b-waves [5, 7]: no effect
photopic ERG responses [5, 7]: did not show any effects
ratio of scotopic and photopic b- to a-wave amplitudes ([5]; single IVI 25 or 100 pmol): not affected
